This note sets out measurements from US20070281900A1, “COMPOSITIONS AND METHODS FOR LIPID AND POLYPEPTIDE BASED siRNA [sequence] [sequence]” (NASTECH PHARMACEUTICAL COMPANY INC., priority 2006, published 2007).

SMILES strings stand for the structures. Peptide text beside a SMILES is read from it.

The series has as its system 9L/LacZ cells. Briefly: Cell confluency as measure of effect of transfection condition on cell growth. Particulars: Qneg siRNA 100 nM, PN183 7 μM or PN73 2 μM where named, nontransfected cells 70%. As to the method:
For each transfection mixture, 9L/LacZ cells (passage 8) were plated at density of 6.0×10^3 cells/well on a 96-well plate. […] The cationic lipid […]™ served as a positive transfection control. Non-transfected cells served as a negative transfection control and a positive control for cell growth.
Transfection efficiency was calculated by dividing the number of fluorescently labeled cells by the total number of cells and multiplying by 100. Cell confluency was used to measure the effect of each transfection condition on cell growth.

Regarding `C[C@@H](O)[C@H](NC(=O)[C@H](CCC(=O)O)NC(=O)[C@H](Cc1c[nH]c2ccccc12)NC(=O)[C@H](Cc1c[nH]c2ccccc12)NC(=O)[C@@H](NC(=O)[C@H](CCC(=O)O)NC(=O)[C@@H](N)CCCCN)[C@@H](C)O)C(=O)N[C@@H](Cc1c[nH]c2ccccc12)C(=O)N[C@@H](Cc1c[nH]c2ccccc12)C(=O)N[C@H](C(=O)N[C@@H](CCC(=O)O)C(=O)N[C@@H](Cc1c[nH]c2ccccc12)C(=O)N[C@@H](CO)C(=O)N[C@@H](CCC(N)=O)C(=O)N1CCC[C@H]1C(=O)NCC(=O)N[C@@H](CCCNC(=N)N)C(=O)N[C@@H](CCCCN)C(=O)N[C@@H](CCCCN)C(=O)N[C@@H](CCCNC(=N)N)C(=O)N[C@@H](CCCNC(=N)N)C(=O)N[C@@H](CCC(N)=O)C(=O)N[C@@H](CCCNC(=N)N)C(=O)N[C@@H](CCCNC(=N)N)C(=O)N[C@@H](CCCNC(=N)N)C(=O)N1CCC[C@H]1C(=O)N1CCC[C@H]1C(=O)N[C@@H](CCC(N)=O)C(N)=O)[C@@H](C)O` [PN183] (H-KETWWETWWTEWSQPGRKKRRQRRRPPQ-NH2), the “% Cell Confluency 20 nM” value (lipid group 20 nM) came to 70%. The “% Cell Confluency 60 nM” value (lipid group 60 nM) was found to be 70%.
